Experimental data reported in the NIST ThermoML archive (doi:10.1021/acs.jced.6b00790).

Assay: mean ionic activity coefficient (dimensionless); mn = molality of the nth substance listed, in mol/kg
Conditions: 298.15 K, 100 kPa, Liquid, potentiometry

O=[N+]([O-])[O-].[Na+] [sodium nitrate] + O
Conditions	mean ionic activity coefficient
m1 = 0.01	0.893
m1 = 0.05	0.811
m1 = 0.1	0.766
m1 = 0.2001	0.697
m1 = 0.2999	0.663
m1 = 0.4	0.638
m1 = 0.5001	0.616
m1 = 0.5999	0.576
m1 = 0.7001	0.565
m1 = 0.7998	0.545
m1 = 0.9	0.518
m1 = 0.9999	0.502
